This passage reports TGI and GI50 results from PubChem BioAssay (NCI).

Values joined by “and” are separate entries in the source; they are usually repeats but may differ in a detail not shown here. Equal entries are not always repeated.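 Exposure lasted 48 hours, with cells grown in 96-well plates and compounds tested at five concentrations. At the GI50, growth is halved. TGI denotes the concentration required for complete inhibition of growth.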

The subject of the first test is HL-60(TB) leukemia. The test can be described thus: NCI-60 cell line screen, 48 h.
As for `CCc1ccc(NCc2cc(OC)c(OC)c(OC)c2)cc1`, the TGI is 7.94 µM and 5.38 µM.
The same measure, in the same setting: the value for `CS(=O)(=O)CC1=Nc2nnc(CCCCCCCc3nnc4n3C(=O)C(CS(C)(=O)=O)=N4)n2C1=O` was more than 100 µM.
With `COc1ccccc1[N-]C(C1=C([O-])c2ccccc2C1=O)c1ccccc1.COc1ccccc1[N-]C(C1=C([O-])c2ccccc2C1=O)c1ccccc1.[Cu+2]` (configuration not stated), the GI50 is 3.25 µM and the TGI is more than 100 µM.
For `O=C(NCCCCCCNC(=O)c1cccc2ccccc12)c1cccc2ccccc12`, the TGI was more than 100 µM.
The compound `COC12C=CC(CC1)c1c(O)ccc(O)c12` (configuration not stated) showed a TGI of 41.6 µM.
The same measure, in the same setting: the same measure for `CC1=C2CCCC2C/C(=N/Nc2ccc([N+](=O)[O-])cc2[N+](=O)[O-])CC1` (configuration not stated): 83.2 µM.
For `COc1cc2cc(Oc3ccc(NC(=O)Nc4ccc(Cl)c(C(F)(F)F)c4)cc3)c(C)nc2cc1OCCN1CCCCC1`, the GI50 is 1.87 µM and the TGI was found to be 3.53 µM.
As to `CC1CC2C(=O)NC(=O)C2c2[nH]c3ccccc3c21` (configuration not stated), the TGI is more than 100 µM.
Turning to `CC1=CC(=O)c2c(O)cccc2C1=O`, the TGI is 0.398 µM.
Turning to `Cc1ccc2c(c1)C1(C)OC(CC(N)C1O)O2` (configuration not stated), the TGI was more than 100 µM.
On the same count and under the same terms, the same measure for `COC(=O)[C@@H]1CSC(=S)N1C(=O)C[C@H]1CC=CC[C@H]1CC(=O)Sc1ccccc1`: 14 µM.
The same measure, in the same setting: the same measure for `CC1(Sc2ccccc2)CN(Cc2ccccc2)C1=O` (configuration not stated): more than 100 µM.
Consider `O=C(CCN1CCCC1)Nc1ccc2c(NCc3ccc(F)cc3)c3ccccc3nc2c1`, for which the GI50 was 0.55 µM and the TGI is 2.34 µM.
For `COc1cccc(OC(=O)c2ccccc2Nc2ccnc(C(F)(F)F)c2)c1`, in that order: 2.15 µM and 15.2 µM.
`CCOP(=O)(OCC)C1CCCCOC1=O` (configuration not stated) had a TGI of more than 100 µM.
In the case of `N#CC(C#N)=Cc1ccc(-c2ccc(-c3nc4ccccc4s3)cc2)o1`, the GI50 was 37.4 µM and the TGI is more than 100 µM.
For `O=C1C(Cl)=C(N/N=c2/[nH][nH]/c(=N/NC3=C(Cl)C(=O)c4ccccc4C3=O)c3ccccc23)C(=O)c2ccccc21`, in that order: 8.45 µM and 34.2 µM.

Another test concerns HS 578T breast. Put plainly: NCI-60 cell line screen, 48 h.
Regarding `Cc1ccc2[nH]c(C(=O)NN3C(=O)CSC34CCCCC4C)c(-c3ccccc3)c2c1` (configuration not stated), the GI50 is 27.8 µM and the TGI came to 96.2 µM.
Consider `CCOC(=O)c1c2c(n(CC(C)C)c1C)-c1nc[nH]c1C(=O)C2=O`, for which the GI50 was 38.9 µM and the TGI was more than 100 µM.
Turning to `CCc1ccc(NCc2cc(OC)c(OC)c(OC)c2)cc1`, the TGI is more than 100 µM.
Turning to `COc1cccc(OC(=O)c2ccccc2Nc2ccnc(C(F)(F)F)c2)c1`, the GI50 was 4.85 µM and the TGI was more than 100 µM.
Regarding `O=C1C(Cl)=C(N/N=c2/[nH][nH]/c(=N/NC3=C(Cl)C(=O)c4ccccc4C3=O)c3ccccc23)C(=O)c2ccccc21`, the GI50 was 13.5 µM and the TGI stood at 66.3 µM.

For a further test, the system named is IGROV1 ovarian. Put plainly: NCI-60 cell line screen, 48 h.
`Nc1cc(=O)[nH]c(SC2=NC(N)CC(O)C2)n1` (configuration not stated) returned a TGI of more than 100 µM.
For `CC(=O)[O][Pb]([O]C(C)=O)([c]1ccccc1)[c]1ccccc1`, the GI50 is 5.98 µM and the TGI is more than 100 µM.
`CN1CCc2c1nc(-c1ccccc1)c1c2N(C)CC1` returned a TGI of more than 100 µM.
As for `CCC[CH2][Sn]([CH2]CCC)([O]C(C)=O)[O]C(C)=O`, the GI50 is 1.32 µM and the TGI is 1.96 µM.
The compound `COC(=O)CCC(=O)N1Cc2cc(C)ccc2N(C(=O)CCC(=O)OC)Cc2cc(C)ccc21` yielded a TGI of more than 100 µM.
Same read-out and setting: the same measure for `C=C1C(=O)O[C@H]2C[C@@H](C)[C@@H]3CC(=O)OC[C@@]3(C)CC12` (some centres not stated): more than 100 µM.
As to `CCOC(=O)c1c2c(n(CC(C)C)c1C)-c1nc[nH]c1C(=O)C2=O`, the GI50 was 18.8 µM and the TGI was found to be 36 µM.
Take `CCc1ccc(NCc2cc(OC)c(OC)c(OC)c2)cc1`: the GI50 is 1.32 µM and 0.615 µM; the TGI was more than 66.2 µM.
`CS(=O)(=O)CC1=Nc2nnc(CCCCCCCc3nnc4n3C(=O)C(CS(C)(=O)=O)=N4)n2C1=O` yielded a TGI of more than 100 µM.
Take `COc1ccccc1[N-]C(C1=C([O-])c2ccccc2C1=O)c1ccccc1.COc1ccccc1[N-]C(C1=C([O-])c2ccccc2C1=O)c1ccccc1.[Cu+2]` (configuration not stated): the GI50 is 9.3 µM and the TGI was more than 100 µM.
As for `O=C(NCCCCCCNC(=O)c1cccc2ccccc12)c1cccc2ccccc12`, the TGI is more than 100 µM.
On the same count and under the same terms, the value for `COC12C=CC(CC1)c1c(O)ccc(O)c12` (configuration not stated) was more than 100 µM.
Compound `CC1=C2CCCC2C/C(=N/Nc2ccc([N+](=O)[O-])cc2[N+](=O)[O-])CC1` (configuration not stated) came in with a TGI of more than 100 µM.
Turning to `COc1cc2cc(Oc3ccc(NC(=O)Nc4ccc(Cl)c(C(F)(F)F)c4)cc3)c(C)nc2cc1OCCN1CCCCC1`, the GI50 was 1.48 µM and the TGI turned out to be 2.94 µM.
On to `CC1CC2C(=O)NC(=O)C2c2[nH]c3ccccc3c21` (configuration not stated), for which the TGI is more than 100 µM.
Same read-out and setting: the same measure for `CC1=CC(=O)c2c(O)cccc2C1=O`: 3.33 µM; for `Cc1ccc2c(c1)C1(C)OC(CC(N)C1O)O2` (configuration not stated): more than 100 µM; for `COC(=O)[C@@H]1CSC(=S)N1C(=O)C[C@H]1CC=CC[C@H]1CC(=O)Sc1ccccc1`: 39.7 µM.
On the same count and under the same terms, the value for `CC1(Sc2ccccc2)CN(Cc2ccccc2)C1=O` (configuration not stated) was more than 100 µM.
Consider `O=C(CCN1CCCC1)Nc1ccc2c(NCc3ccc(F)cc3)c3ccccc3nc2c1`, for which the GI50 was 0.363 µM and the TGI is 1.5 µM.
`C=C1C(=O)OC2CC3(C)C=CC(=O)C(=C)C3CC12` (configuration not stated) gave a TGI of 5.04 µM.
As to `COc1cccc(OC(=O)c2ccccc2Nc2ccnc(C(F)(F)F)c2)c1`, the GI50 was 23.6 µM and the TGI is more than 100 µM.
`CCOP(=O)(OCC)C1CCCCOC1=O` (configuration not stated) yielded a TGI of more than 100 µM.
For the compound `N#CC(C#N)=Cc1ccc(-c2ccc(-c3nc4ccccc4s3)cc2)o1`, the GI50 was 3.7 µM and the TGI is 56.3 µM.
For `O=C1C(Cl)=C(N/N=c2/[nH][nH]/c(=N/NC3=C(Cl)C(=O)c4ccccc4C3=O)c3ccccc23)C(=O)c2ccccc21`, in that order: 17.7 µM and 48.5 µM.
